In publication PMC8168342 (Chemical biology & drug design, 2021):

Molecular target: T1, androgen receptor (AR) (Homo sapiens, UniProt P10275)
T1 sequence (P10275 1-920): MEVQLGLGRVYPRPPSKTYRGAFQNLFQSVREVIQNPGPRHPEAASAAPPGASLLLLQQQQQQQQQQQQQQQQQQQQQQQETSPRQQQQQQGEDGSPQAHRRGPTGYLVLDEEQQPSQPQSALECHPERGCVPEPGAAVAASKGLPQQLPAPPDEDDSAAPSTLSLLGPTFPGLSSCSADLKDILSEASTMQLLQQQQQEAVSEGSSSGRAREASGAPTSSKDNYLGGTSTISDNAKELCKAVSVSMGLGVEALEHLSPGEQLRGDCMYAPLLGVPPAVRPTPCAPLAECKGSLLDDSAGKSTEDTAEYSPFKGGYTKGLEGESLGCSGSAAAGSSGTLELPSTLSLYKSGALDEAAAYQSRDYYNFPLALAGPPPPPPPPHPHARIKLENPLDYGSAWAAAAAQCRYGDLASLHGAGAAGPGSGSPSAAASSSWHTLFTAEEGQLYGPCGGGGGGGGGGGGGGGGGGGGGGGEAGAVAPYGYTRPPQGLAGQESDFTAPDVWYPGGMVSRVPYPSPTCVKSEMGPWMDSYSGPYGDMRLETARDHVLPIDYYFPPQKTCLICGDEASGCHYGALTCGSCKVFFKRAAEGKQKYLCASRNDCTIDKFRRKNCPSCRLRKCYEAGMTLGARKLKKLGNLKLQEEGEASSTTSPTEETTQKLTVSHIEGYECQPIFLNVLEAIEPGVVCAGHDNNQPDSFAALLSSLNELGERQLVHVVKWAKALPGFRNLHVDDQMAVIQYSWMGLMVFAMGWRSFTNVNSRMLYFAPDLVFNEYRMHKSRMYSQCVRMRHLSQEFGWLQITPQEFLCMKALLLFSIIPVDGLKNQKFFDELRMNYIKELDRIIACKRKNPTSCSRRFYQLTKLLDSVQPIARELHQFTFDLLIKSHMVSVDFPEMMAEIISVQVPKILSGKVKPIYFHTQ
Test: ARE luciferase reporter assay in MDA-kb2 cells, antagonism of […] DHT
Format: cell-based

Compound	% inhibition at 1 μM
CC1(C)C(=O)N(c2ccc(C#N)c(C(F)(F)F)c2)C(=S)N1c1ccc(CCCCCCO)nc1 [10b, 4-(3-(6-(6-Hydroxyhexyl)pyridin-3-yl)-4,4-dimethyl-5-oxo-2-thioxoimidazolidin-1-yl)-2-(trifluoromethyl) benzonitrile]	60
CC1(C)C(=O)N(c2ccc(C#N)c(C(F)(F)F)c2)C(=S)N1c1ccc(CCCCCCN=[N+]=[N-])nc1 [11b, 4-(3-(6-(6-Azidohexyl)pyridin-3-yl)-4,4-dimethyl-5-oxo-2-thioxoimidazolidin-1-yl)-2-(trifluoromethyl) benzonitrile]	60
